According to the supplement of paper PMC10307832:

Key:
Assay in all cases: relative viability (nuclei count vs DMSO), 5 days (fraction); higher = more cells survive
Adavosertib + Tozasertib = compound: C=CCn1c(=O)c2cnc(Nc3ccc(N4CCN(C)CC4)cc3)nc2n1-c1cccc(C(C)(C)O)n1 [Adavosertib] + Cc1cc(Nc2cc(N3CCN(C)CC3)nc(Sc3ccc(NC(=O)C4CC4)cc3)n2)n[nH]1 [Tozasertib] (partner 0.1 µM)
Procedure, shortened: (§1)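 Five library-drug doses in √10 steps were combined with a fixed anchor-drug dose, or a single drug was given alone, by pin tool to lung cancer cell lines in 1536-well plates the day after seeding. Nuclei were stained and counted after 5 days. Relative viability is the nuclei count in treated wells over that in vehicle wells, taken as the median of duplicate plates.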

Nelarabine + Palbociclib = compound: COc1nc(N)nc2c1ncn2[C@@H]1O[C@H](CO)[C@@H](O)[C@@H]1O [Nelarabine] + CC(=O)c1c(C)c2cnc(Nc3ccc(N4CCNCC4)cn3)nc2n(C2CCCC2)c1=O [Palbociclib] (partner 0.5 µM)
Procedure, shortened: as §1

Nelarabine + Navitoclax = compound: COc1nc(N)nc2c1ncn2[C@@H]1O[C@H](CO)[C@@H](O)[C@@H]1O [Nelarabine] + CC1(C)CCC(c2ccc(Cl)cc2)=C(CN2CCN(c3ccc(C(=O)NS(=O)(=O)c4ccc(N[C@H](CCN5CCOCC5)CSc5ccccc5)c(S(=O)(=O)C(F)(F)F)c4)cc3)CC2)C1 [Navitoclax] (partner 0.5 µM)
Procedure, shortened: as §1

Nelarabine + Linsitinib = compound: COc1nc(N)nc2c1ncn2[C@@H]1O[C@H](CO)[C@@H](O)[C@@H]1O [Nelarabine] + C[C@]1(O)C[C@@H](c2nc(-c3ccc4ccc(-c5ccccc5)nc4c3)c3c(N)nccn32)C1 [Linsitinib] (partner 1 µM)
Procedure, shortened: as §1

| Cell Line | relative viability (Adavosertib + Tozasertib; first compound 0.01 µM) | relative viability (Adavosertib + Tozasertib; first compound 0.03162 µM) | relative viability (Adavosertib + Tozasertib; first compound 0.1 µM) | relative viability (Adavosertib + Tozasertib; first compound 0.3162 µM) | relative viability (Nelarabine + Palbociclib; first compound 0.01 µM) | relative viability (Nelarabine + Palbociclib; first compound 0.03162 µM) | relative viability (Nelarabine + Palbociclib; first compound 0.1 µM) | relative viability (Nelarabine + Palbociclib; first compound 0.3162 µM) | relative viability (Nelarabine + Palbociclib; first compound 1 µM) | relative viability (Nelarabine + Navitoclax; first compound 0.01 µM) | relative viability (Nelarabine + Navitoclax; first compound 0.03162 µM) | relative viability (Nelarabine + Navitoclax; first compound 0.1 µM) | relative viability (Nelarabine + Navitoclax; first compound 0.3162 µM) | relative viability (Nelarabine + Navitoclax; first compound 1 µM) | relative viability (Nelarabine + Linsitinib; first compound 0.01 µM) | relative viability (Nelarabine + Linsitinib; first compound 0.03162 µM) | relative viability (Nelarabine + Linsitinib; first compound 0.1 µM) | relative viability (Nelarabine + Linsitinib; first compound 0.3162 µM) | relative viability (Nelarabine + Linsitinib; first compound 1 µM) |
| --- | --- | --- | --- | --- | --- | --- | --- | --- | --- | --- | --- | --- | --- | --- | --- | --- | --- | --- | --- |
| NCI-H1437 | 0.415 | 0.389 | 0.433 | 0.421 | 0.342 | 0.35 | 0.307 | 0.338 | 0.302 | 1.38 | 1.16 | 1.09 | 1.05 | 1.03 | 1.27 | 1.05 | 0.998 | 1.08 | 1.01 |
| 201T | 0.91 | 0.999 | 1.01 | 0.979 | 0.391 | 0.352 | 0.409 | 0.389 | 0.351 | 1.15 | 1.18 | 1.18 | 1.15 | 1.16 | 1.18 | 0.942 | 1.07 | 0.958 | 0.96 |
| LC-2-ad | 0.478 | 0.419 | 0.445 | 0.442 | 0.525 | 0.495 | 0.475 | 0.544 | 0.522 | 0.619 | 0.384 | 0.519 | 0.434 | 0.452 | 0.919 | 0.832 | 0.823 | 0.758 | 0.797 |
| NCI-H441 | 0.688 | 0.685 | 0.801 | 0.636 | 0.194 | 0.188 | 0.202 | 0.192 | 0.192 | 1.13 | 0.707 | 0.912 | 0.5 | 0.49 | 0.679 | 0.605 | 0.614 | 0.52 | 0.603 |
